Patent publication US7632816B2, “Treatment of Alzheimer amyloid deposition” (New York University, priority 2003, dated 2009)
“Also recorded” adds a separate entry of the source. Where two headings read alike, the source gives them in different places. Square brackets hold non-standard residues; d marks the D form. Peptide text beside a SMILES is read from it.

Tests used:
apoE4 [1] = target: T1, apoE4 (Homo sapiens, UniProt P02649, C130R); test: Thioflavin-T aggregation inhibition: apoE4-promoted Aβ1-42 fibril formation; assay type: biochemical
T1 construct: made in house; host or cells: primary forebrain astrocytes of GFAP-human apoE4 transgenic mice
Method: (§1) Recombinant apoE3 and apoE4 were purchased from Calbiochem Corp. (San Diego, Calif.). Lipidated apoE3 and apoE4 complexes were prepared from primary cultures of astrocytes derived from Tg mice in which human apoE3 or apoE4 were expressed under the control of the astrocyte-specific glial fibrillary acidic protein (GFAP) promoter as described previously (Fagan et al., “Unique Lipoproteins Secreted by Primary Astrocytes from Wild Type, ApoE (−/−), and Human ApoE Transgenic Mice,” J. Biol. Chem. 274:30001-30007 (1999); DeMattos et al., “Purification and Characterization of Astrocyte-secreted Apolipoprotein E and J-Containing Lipoproteins from Wild-type and Human ApoE Transgenic Mice,” Neurochemistry International 39:415-425 (2001); Sun et al., “Glial Fibrillary Acidic Protein-apolipoprotein E (apoE) Transgenic Mice: Astrocyte-specific Expression and Differing Biological Effects of Astrocyte-secreted ApoE3 and ApoE4 Lipoproteins,” J. Neurosci. 18:3261-3272 (1998); which are hereby incorporated by reference in their entirety). […] The purity of the apoE preparation was assessed by SDS-PAGE.
(§2) Aβ1-40 and Aβ1-42 were studied for comparison. […] Samples containing 15 μg of incubated peptides were taken at indicated intervals and fluorescence was measured as previously described in a Perkin-Elmer LS-50B fluorescence spectrophotometer (Perkin Elmer Instruments, Shelton, Conn.) (Wisniewski et al., “Acceleration of Alzheimer's Fibril Formation by Apolipoprotein E in vitro,” Am. J. Pathol. 145:1030-1035 (1994); Golabek et al., “The Interaction Between Apolipoprotein E and Alzheimer's Amyloid β-peptide is Dependent on β-peptide Conformation,” J. Biol. Chem. 271:10602-10606 (1996); which are hereby incorporated by reference in their entirety). […] Differences in amount of fibrils formed by the different peptides were evaluated by means of a repeated measures ANOVA, followed by a Tukey HSD post-hoc test using Statistica (version 6.1) (StatSoft Inc., Tulsa, Okla.). […]

[2] = mouse
apoE4 [3] = target: T1, apoE4; test: Toxicity rescue: neutralizing apoE4's effect on Aβ1-42 neurotoxicity, MTT assay in SK-N-SH cells; assay type: cell-based; conditions: Aβ1-42 100 μmol/L, apoE4 0.5 μmol/L preincubated with 0.5 μmol/L peptide; two day p<0.05, 6 day p<0.01
Method: All experiments were run in triplicate. The results from cell culture neurotoxicity studies were evaluated by one-way analysis of variance, followed by a Dunnett's test as a post hoc analysis.

apoE3 = target: T2, apoE3 (Homo sapiens, UniProt P02649); test: Thioflavin-T aggregation inhibition: apoE3-promoted Aβ1-42 fibril formation; assay type: biochemical; conditions: for relative reduction in fluorescence: apoE3 preincubated with Aβ12-28P, then added to Aβ1-42
T2 construct: made in house; host or cells: primary forebrain astrocytes of GFAP-human apoE3 transgenic mice
Method: as §1, §2

T2 sequence (P02649 19-317): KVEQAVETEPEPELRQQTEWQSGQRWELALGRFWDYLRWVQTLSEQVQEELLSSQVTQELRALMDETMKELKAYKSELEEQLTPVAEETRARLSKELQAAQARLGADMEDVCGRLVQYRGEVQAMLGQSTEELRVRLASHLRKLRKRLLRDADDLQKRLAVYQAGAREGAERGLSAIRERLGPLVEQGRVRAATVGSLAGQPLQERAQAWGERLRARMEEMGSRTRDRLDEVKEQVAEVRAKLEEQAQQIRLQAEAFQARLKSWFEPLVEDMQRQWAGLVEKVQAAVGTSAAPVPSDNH
T1 sequence (P02649 19-317 C130R): as the sequence (P02649 19-317) above, with C112R counted along it

For `CC(=O)N[C@@H](C(=O)N[C@H](Cc1c[nH]cn1)C(=O)N[C@H](Cc1c[nH]cn1)C(=O)N[C@H](CCC(N)=O)C(=O)N[C@H](CCCCN)C(=O)N[C@H](CC(C)C)C(=O)N1CCC[C@@H]1C(=O)N[C@H](Cc1ccccc1)C(=O)N[C@H](Cc1ccccc1)C(=O)N[C@H](C)C(=O)N[C@H](CCC(=O)O)C(=O)N[C@H](CC(=O)O)C(=O)N[C@@H](C(=O)NCC(=O)N[C@H](CO)C(=O)N[C@H](CC(N)=O)C(=O)N[C@H](CCCCN)C(N)=O)C(C)C)C(C)C` [Aβ12-28P] (Ac-[dV][dH][dH][dQ][dK][dL][dP][dF][dF][dA][dE][dD][dV]G[dS][dN][dK]-NH2), the “relative reduction in fluorescence” value (apoE4 [1]) was 25.3%, the “relative reduction in fluorescence” value (apoE4 [1]; apoE4 preincubated with Aβ12-28P, then added to Aβ1-42, day six) was 52.3% and the “chaperoning effect of apoE4 on Aβ1-42 fibril formation” value (apoE4 [1]; apoE4 preincubated with equimolar Aβ12-28P, p<0.01) was “significantly reduced”. The BBB permeability [2] was “BBB permeable”, the “share found in the capillary depleted brain fraction” value ([2]; in vivo) was “More than 90%” and the “rescue of cell viability from apoE4-enhanced Aβ1-42 toxicity” value (apoE4 [3]) was “significant rescue of the cell viability; also recorded: could be neutralized”. The “relative reduction in fluorescence” value (apoE3; after 24 h of incubation) was 14.5%, the “relative reduction in fluorescence” value (apoE3; day six) was 48.3% and the “chaperoning effect of apoE3 on Aβ1-42 fibril formation” value (apoE3; apoE3 preincubated with equimolar Aβ12-28P, p<0.05) was “significantly reduced”.
